Values quoted from earlier work as cited in patent US10485825B2, “Prevention of pregnancy complications by noble gas administration” (NOBLIS THERAPEUTICS, INC., priority 2016, dated 2019).

Test system: Tregs
Conditions: CCL20 stimulation; blocked by neutralizing anti-CCL20 antibody

CCL20: CCL20 protein used to stimulate Treg migration in a cited study
increase in migration of CCL20-stimulated Tregs: 3.21 fold
